Reference: patent publication US20240246918A1, “COMPOUNDS AND COMPOSITIONS AS EIF4E INHIBITORS AND THE USES THEREOF” (Ribometrix, Inc., priority 2022, published 2024)

Tests used:
[1] = system: COLO 205 colorectal tumor cells; experiment: Tumor cell viability inhibition assay (CellTiter-Glo 2.0, 72 hours); type: cell-based; settings: COLO 205 cell viability
Outline: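 IC50 derived by 4-parameter fitting after normalizing luminescence to DMSO and max-inhibition wells. Compounds tested as 11 concentrations in 4-fold steps on COLO 205 cells seeded at 1500 per well in RPMI-1640/10% FBS; ATP content measured with CellTiter-Glo 2.0 after 72 h.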

human eIF4E protein = target: T1, human eIF4E protein (Homo sapiens, UniProt P06730); experiment: Biochemical competitive binding assay (TR-FRET competition, EDA-m7GDP-ATTO-647N probe); settings: read-out: hEIF4E TR-FRET IC50
T1 construct: purchased Novus NBP-45314
Outline: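 IC50 values come from 4-parameter fits of the normalized 665/620 nm TR-FRET ratio. Compound was first incubated 15 min with 4 nM recombinant His-eIF4E bound to 2.5 nM Eu-anti-His antibody, then 15 min with 5 nM m7GDP-ATTO-647N tracer, in pH 7.5 HEPES buffer with 100 mM KCl, Tween-20 and BSA.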

T1 sequence (P06730 whole entry): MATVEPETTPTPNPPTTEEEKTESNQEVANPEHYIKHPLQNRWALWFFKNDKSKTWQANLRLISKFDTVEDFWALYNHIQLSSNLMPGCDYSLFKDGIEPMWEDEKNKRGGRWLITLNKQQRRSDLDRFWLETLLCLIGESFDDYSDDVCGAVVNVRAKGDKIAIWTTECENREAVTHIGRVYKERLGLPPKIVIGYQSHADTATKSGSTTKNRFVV

## Cc1cc(-c2cc(Cl)ccc2OCCn2c(C)nc3c(c2=O)C[C@H](N2CCO[C@H](COC(F)(F)F)C2)CC3)c2scc(C(=O)O)c2n1 (single isomer, unassigned) [Compound 478]
[1]; Homo sapiens, COLO 205, 72 h
  IC50: < 5000 nM
Human eIF4E protein
  IC50: < 100 nM

## Cc1cc(-c2cc(Cl)ccc2OCCn2c(C)nc3c(c2=O)C[C@@H](N2CCO[C@@H](COC(F)(F)F)C2)CC3)c2scc(C(=O)O)c2n1 (single isomer, unassigned) [Compound 479]
[1]; Homo sapiens, COLO 205, 72 h
  IC50: < 5000 nM
Human eIF4E protein
  IC50: < 100 nM

## Cc1cc(-c2cc(Cl)ccc2OCCn2c(C)nc3c(c2=O)C[C@@H](N2CCO[C@H](COC(F)(F)F)C2)CC3)c2scc(C(=O)O)c2n1 (single isomer, unassigned) [Compound 480]
[1]; Homo sapiens, COLO 205, 72 h
  IC50: < 5000 nM
Human eIF4E protein
  IC50: < 100 nM

## Cc1csc([C@@H]2CCCN([C@H]3CCc4nc(C)n(CCOc5ccc(Cl)cc5-c5cc(C)nc6c(C(=O)O)csc56)c(=O)c4C3)C2)n1 (single isomer, unassigned) [Compound 481]
[1]; Homo sapiens, COLO 205, 72 h
  IC50: < 5000 nM
Human eIF4E protein
  IC50: < 100 nM

## Cc1csc([C@H]2CCCN([C@H]3CCc4nc(C)n(CCOc5ccc(Cl)cc5-c5cc(C)nc6c(C(=O)O)csc56)c(=O)c4C3)C2)n1 (single isomer, unassigned) [Compound 482]
[1]; Homo sapiens, COLO 205, 72 h
  IC50: < 5000 nM
Human eIF4E protein
  IC50: < 100 nM

## Cc1csc([C@H]2CCCN([C@@H]3CCc4nc(C)n(CCOc5ccc(Cl)cc5-c5cc(C)nc6c(C(=O)O)csc56)c(=O)c4C3)C2)n1 (single isomer, unassigned) [Compound 483]
[1]; Homo sapiens, COLO 205, 72 h
  IC50: < 5000 nM
Human eIF4E protein
  IC50: < 100 nM

## Cc1csc([C@@H]2CCCN([C@@H]3CCc4nc(C)n(CCOc5ccc(Cl)cc5-c5cc(C)nc6c(C(=O)O)csc56)c(=O)c4C3)C2)n1 (single isomer, unassigned) [Compound 484]
[1]; Homo sapiens, COLO 205, 72 h
  IC50: < 5000 nM
Human eIF4E protein
  IC50: < 100 nM

## Cc1cc(-c2cc(Cl)ccc2OCCn2c(C)nc3c(c2=O)C[C@H](N2CCC[C@H](c4cnn(C)c4)C2)CC3)c2scc(C(=O)O)c2n1 (single isomer, unassigned) [Compound 485]
[1]; Homo sapiens, COLO 205, 72 h
  IC50: < 5000 nM
Human eIF4E protein
  IC50: < 100 nM

## Cc1cc(-c2cc(Cl)ccc2OCCn2c(C)nc3c(c2=O)C[C@H](N2CCC(c4cn(C)cn4)CC2)CC3)c2scc(C(=O)O)c2n1 (single isomer, unassigned) [Compound 486]
[1]; Homo sapiens, COLO 205, 72 h
  IC50: > 20000 nM
Human eIF4E protein
  IC50: < 100 nM

## Cc1cc(-c2cc(Cl)ccc2OCCn2c(C)nc3c(c2=O)C[C@@H](N2CCC(c4cn(C)cn4)CC2)CC3)c2scc(C(=O)O)c2n1 (single isomer, unassigned) [Compound 487]
[1]; Homo sapiens, COLO 205, 72 h
  IC50: > 20000 nM
Human eIF4E protein
  IC50: < 100 nM

## Cc1cc(-c2cc(Cl)ccc2OCCn2c(C)nc3c(c2=O)C[C@H](N2CCC(c4noc5ccc(F)cc45)CC2)CC3)c2scc(C(=O)O)c2n1 (single isomer, unassigned) [Compound 488]
[1]; Homo sapiens, COLO 205, 72 h
  IC50: < 5000 nM
Human eIF4E protein
  IC50: < 100 nM

## Cc1cc(-c2cc(Cl)ccc2OCCn2c(C)nc3c(c2=O)C[C@H](N2CCC4(CC2)CC(F)(F)CO4)CC3)c2scc(C(=O)O)c2n1 (single isomer, unassigned) [Compound 489]
[1]; Homo sapiens, COLO 205, 72 h
  IC50: < 5000 nM
Human eIF4E protein
  IC50: < 100 nM

## Cc1cc(-c2cc(Cl)ccc2OCCn2c(C)nc3c(c2=O)C[C@@H](N2CCC4(CC2)CC(F)(F)CO4)CC3)c2scc(C(=O)O)c2n1 (single isomer, unassigned) [Compound 490]
[1]; Homo sapiens, COLO 205, 72 h
  IC50: < 5000 nM
Human eIF4E protein
  IC50: < 100 nM

## COC1CCN(C2CCc3nc(C)n(CC#Cc4ccc(Cl)cc4-c4ccnc5c(C(=O)NS(C)(=O)=O)csc45)c(=O)c3C2)CC1 (single isomer, unassigned) [Compound 491]
[1]
  IC50: < 5000 nM
Human eIF4E protein
  IC50: < 100 nM

## Cc1cc(-c2cc(Cl)ccc2OCCn2c(C)nc3c(c2=O)CC(N2CCC(CC(F)(F)F)CC2)CC3(C)C)c2scc(C(=O)O)c2n1 (single isomer, unassigned) [Compound 492]
[1]; Homo sapiens, COLO 205, 72 h
  IC50: < 5000 nM
Human eIF4E protein
  IC50: < 100 nM

## Cc1cc(-c2cc(Cl)ccc2OCCn2c(C)nc3c(c2=O)C[C@@H](N(C)C24CC5CC(CC(C5)C2)C4)CC3)c2scc(C(=O)O)c2n1 (single isomer, unassigned) [Compound 493]
[1]; Homo sapiens, COLO 205, 72 h
  IC50: < 5000 nM
Human eIF4E protein
  IC50: < 100 nM

## Cc1cc(-c2cc(Cl)ccc2OCCn2c(C)nc3c(c2=O)C[C@H](N2CC4CCC(C2)C4OC(F)(F)F)CC3)c2scc(C(=O)O)c2n1 (single isomer, unassigned) [Compound 494]
[1]; Homo sapiens, COLO 205, 72 h
  IC50: < 5000 nM
Human eIF4E protein
  IC50: < 100 nM

## Cc1cc(-c2cc(Cl)ccc2OCCn2c(C)nc3c(c2=O)C[C@@H](N2CC4CCC(C2)C4OC(F)(F)F)CC3)c2scc(C(=O)O)c2n1 (single isomer, unassigned) [Compound 495]
[1]; Homo sapiens, COLO 205, 72 h
  IC50: < 5000 nM
Human eIF4E protein
  IC50: < 100 nM

## COC1CCN(C2(C)CCc3nc(C)n(CCOc4ccc(Cl)cc4-c4cc(C)nc5c(C(=O)O)csc45)c(=O)c3C2)CC1 (single isomer, unassigned) [Compound 496]
[1]
  IC50: < 5000 nM
Human eIF4E protein
  IC50: < 100 nM

## COC1CCN(C2(C)CCc3nc(C)n(CCOc4ccc(Cl)cc4-c4cc(C)nc5c(C(=O)O)csc45)c(=O)c3C2)CC1 (single isomer, unassigned) [Compound 497]
[1]
  IC50: > 20000 nM
Human eIF4E protein
  IC50: 100 to 500 nM

## Cc1cc(-c2cc(Cl)ccc2OCCn2c(C)nc3c(c2=O)C[C@@H](N2C[C@@H]4CC[C@H]2CC4OC(F)(F)F)CC3)c2scc(C(=O)O)c2n1 (single isomer, unassigned) [Compound 498]
[1]; Homo sapiens, COLO 205, 72 h
  IC50: < 5000 nM
Human eIF4E protein
  IC50: < 100 nM

## Cc1cc(-c2cc(Cl)ccc2OCCn2c(C)nc3c(c2=O)C[C@H](N2C[C@H]4CC[C@@H]2CC4OC(F)(F)F)CC3)c2scc(C(=O)O)c2n1 (single isomer, unassigned) [Compound 499]
[1]; Homo sapiens, COLO 205, 72 h
  IC50: < 5000 nM
Human eIF4E protein
  IC50: < 100 nM

## Cc1cc(-c2cc(Cl)ccc2OCCn2c(C)nc3c(c2=O)CC(N2CCC(CC(F)(F)F)CC2)CC3(C)C)c2scc(C(=O)O)c2n1 (single isomer, unassigned) [Compound 500]
[1]
  IC50: < 5000 nM
Human eIF4E protein
  IC50: < 100 nM

## Cc1cc(-c2cc(Cl)ccc2OCCn2c(C)nc3c(c2=O)C[C@H](N2C[C@@H]4CC[C@H]2CC4OC(F)(F)F)CC3)c2scc(C(=O)O)c2n1 (single isomer, unassigned) [Compound 501]
[1]; Homo sapiens, COLO 205, 72 h
  IC50: < 5000 nM
Human eIF4E protein
  IC50: < 100 nM

## Cc1cc(-c2cc(Cl)ccc2OCCn2c(C)nc3c(c2=O)C[C@@H](N2C[C@H]4CC[C@@H]2CC4OC(F)(F)F)CC3)c2scc(C(=O)O)c2n1 (single isomer, unassigned) [Compound 502]
[1]; Homo sapiens, COLO 205, 72 h
  IC50: < 5000 nM
Human eIF4E protein
  IC50: < 100 nM

## COC1(C(F)(F)F)CC2CCC(C1)N2[C@H]1CCc2nc(C)n(CCOc3ccc(Cl)cc3-c3cc(C)nc4c(C(=O)O)csc34)c(=O)c2C1 (single isomer, unassigned) [Compound 503]
[1]; Homo sapiens, COLO 205, 72 h
  IC50: 5000 to 20000 nM
Human eIF4E protein
  IC50: 100 to 500 nM

## COC1(C(F)(F)F)CC2CCC(C1)N2[C@@H]1CCc2nc(C)n(CCOc3ccc(Cl)cc3-c3cc(C)nc4c(C(=O)O)csc34)c(=O)c2C1 (single isomer, unassigned) [Compound 504]
[1]; Homo sapiens, COLO 205, 72 h
  IC50: < 5000 nM
Human eIF4E protein
  IC50: < 100 nM

## Cc1cc(-c2cc(Cl)ccc2OCCn2c(C)nc3c(c2=O)CC(N2CCC4(CCN(CC(F)(F)F)C4)C2)CC3)c2scc(C(=O)O)c2n1 (single isomer, unassigned) [Compound 505]
[1]; Homo sapiens, COLO 205, 72 h
  IC50: < 5000 nM
Human eIF4E protein
  IC50: < 100 nM

## Cc1cc(-c2cc(Cl)ccc2OCCn2c(C)nc3c(c2=O)CC(N2CCC4(CCN(CC(F)(F)F)C4)C2)CC3)c2scc(C(=O)O)c2n1 (single isomer, unassigned) [Compound 506]
[1]
  IC50: < 5000 nM
Human eIF4E protein
  IC50: < 100 nM

## Cc1cc(-c2cc(Cl)ccc2OCCn2c(C)nc3c(c2=O)CC(N2CC4(CCCN(CC(F)(F)F)C4)C2)CC3)c2scc(C(=O)O)c2n1 (single isomer, unassigned) [Compound 507]
[1]; Homo sapiens, COLO 205, 72 h
  IC50: < 5000 nM
Human eIF4E protein
  IC50: < 100 nM

## Cc1cc(-c2cc(Cl)ccc2OCCn2c(C)nc3c(c2=O)CC(N2CC4(CCCN(CC(F)(F)F)C4)C2)CC3)c2scc(C(=O)O)c2n1 (single isomer, unassigned) [Compound 508]
[1]
  IC50: < 5000 nM
Human eIF4E protein
  IC50: < 100 nM

## Cc1cc(-c2cc(Cl)ccc2OCCn2c(C)nc3c(c2=O)CC(N2CC4(CCCNC4)C2)CC3)c2scc(C(=O)O)c2n1 (single isomer, unassigned) [Compound 509]
[1]; Homo sapiens, COLO 205, 72 h
  IC50: > 20000 nM
Human eIF4E protein
  IC50: < 100 nM

## Cc1cc(-c2cc(Cl)ccc2OCCn2c(C)nc3c(c2=O)CC(N2CC4(CCCNC4)C2)CC3)c2scc(C(=O)O)c2n1 (single isomer, unassigned) [Compound 510]
[1]
  IC50: > 20000 nM
Human eIF4E protein
  IC50: < 100 nM

## Cc1cc(-c2cc(Cl)ccc2OCCn2c(C)nc3c(c2=O)CC(N2CCC4(CN(CC(F)(F)F)CC(F)(F)C4)C2)CC3)c2scc(C(=O)O)c2n1 (single isomer, unassigned) [Compound 511]
[1]; Homo sapiens, COLO 205, 72 h
  IC50: < 5000 nM
Human eIF4E protein
  IC50: < 100 nM

## Cc1cc(-c2cc(Cl)ccc2OCCn2c(C)nc3c(c2=O)CC(N2CCC4(CN(CC(F)(F)F)CC(F)(F)C4)C2)CC3)c2scc(C(=O)O)c2n1 (single isomer, unassigned) [Compound 512]
[1]
  IC50: < 5000 nM
Human eIF4E protein
  IC50: < 100 nM

## Cc1cc(-c2cc(Cl)ccc2OCCn2c(C)nc3c(c2=O)C[C@H](N2CCC[C@@]4(CN(CC(F)(F)F)CC4(F)F)C2)CC3)c2scc(C(=O)O)c2n1 (single isomer, unassigned) [Compound 513]
[1]; Homo sapiens, COLO 205, 72 h
  IC50: < 5000 nM
Human eIF4E protein
  IC50: < 100 nM

## Cc1cc(-c2cc(Cl)ccc2OCCn2c(C)nc3c(c2=O)C[C@@H](N2CCC[C@@]4(CN(CC(F)(F)F)CC4(F)F)C2)CC3)c2scc(C(=O)O)c2n1 (single isomer, unassigned) [Compound 514]
[1]; Homo sapiens, COLO 205, 72 h
  IC50: > 20000 nM
Human eIF4E protein
  IC50: 500 to 5000 nM

## Cc1cc(-c2cc(Cl)ccc2OCCn2c(C)nc3c(c2=O)CC(C)(N2CCC(OC(F)(F)F)CC2)CC3)c2scc(C(=O)O)c2n1 (single isomer, unassigned) [Compound 515]
[1]; Homo sapiens, COLO 205, 72 h
  IC50: < 5000 nM
Human eIF4E protein
  IC50: < 100 nM
